Measured values as given in PMC7326275 (PLoS Pathogens, 2020).
Where “and” joins values, the source holds several entries; their conditions need not be identical. Equal values may be shown once. Read-outs that look alike come from different tables or passages of the source. Marks after values point to notes of the source that are not given here.

Columns and labels:
[1] = system: H3N2 virus (A/Fukui/20/2004); type: in vivo
[2] = system: influenza NA protein (nine different influenza viruses); assay: Fluorometric NA inhibition assay, summary over viruses
[3] = system: B virus (B/Minnesota/23/2015); type: in vivo
[4] = system: H1N1pdm09 virus (A/Perth/265/2009); type: in vivo
H1N1pdm09 virus = type: in vivo
[5] = system: H1N1 virus (A/Mississippi/3/2001); type: in vivo
[6] = system: nine different influenza viruses; assay: animal or person; type: in vivo; details: Mustela putorius, estimated from non-linear regression model, ferrets
[7] = B, OST dosed ferrets, maximum loss from baseline

SMILES: CCOC(=O)C1=C[C@@H](OC(CC)CC)[C@H](NC(C)=O)[C@@H](N)C1 [OST, oseltamivir]
- Total Score (clinical signs) ([1]; H3N2, OST dosed ferrets): 1
- Temperature clinical score ([1]; H3N2, OST dosed ferrets, maximum increase from baseline): 0 (<1)
- Activity loss clinical score ([1]; H3N2, OST dosed ferrets, maximum loss from baseline): 1 (21–40)
- Nasal inflammation Cell score ([1]; H3N2, OST dosed ferrets, nasal wash, maximum cell count): 0 (<1X10^6)
- Nasal inflammation Protein score ([1]; H3N2, OST dosed ferrets, nasal wash, maximum protein concentration): 0 (<500)
- Duration of Shedding ([1]; H3N2, ferrets, OST 5 mg/kg twice daily): 2.0 ± 0.8 days
- AUC (total area under the viral shedding curve, raw data) ([1]; H3N2, ferrets, OST 5 mg/kg twice daily, mean ± SD): 3.0 ± 3.7
- % Ferrets Infected ([1]; in vivo): 50 (4/8) %
- Peak Viral Titre ([1]; in vivo): 3.0 ± 0.8 Log10 TCID50/ml
- Weight loss clinical score ([1]; in vivo): 0
- ferrets prevented from shedding infectious virus ([1]; in vivo): 50%
- reduction of %AUC for cell counts (OST vs placebo) ([1]; in vivo): 69.2%
- reduction of %AUC for protein concentration (OST vs placebo) ([1]; in vivo): 52.4%
- IC50 ([2]; read-out: OST IC50 values, range over nine different influenza viruses, nine viruses of the ferret study): 0.2 to 414 nM
- IC50 ([2]; read-out: normal IC50 values of wild-type influenza A viruses, wild-type influenza A viruses): ~1 nM
- Total Score (clinical signs) ([3]; B, OST dosed ferrets): 3
- Temperature clinical score ([3]; B, OST dosed ferrets, maximum increase from baseline): 0 (<1)
- Activity loss clinical score [3, 7]: 1 (21–40)
- Weight loss clinical score [3, 7]: 0
- Nasal inflammation Cell score ([3]; B, OST dosed ferrets, nasal wash, maximum cell count): 1 (1 to 2 x10^6)
- Nasal inflammation Protein score ([3]; B, OST dosed ferrets, nasal wash, maximum protein concentration): 1 (500–1000)
- % Ferrets Infected ([3]; B, ferrets, OST 5 mg/kg orally twice daily): 100 (4/4) %
- Duration of Shedding ([3]; B, ferrets, OST 5 mg/kg twice daily): 5.5 ± 0.6 days
- AUC (total area under the viral shedding curve, raw data) ([3]; B, ferrets, OST 5 mg/kg twice daily, mean ± SD): 12.9 ± 1.9
- Peak Viral Titre ([3]; in vivo): 3.7 ± 0.4 Log10 TCID50/ml
- Total Score (clinical signs) ([4]; H1N1pdm09, OST dosed ferrets): 6
- Temperature clinical score ([4]; H1N1pdm09, OST dosed ferrets, maximum increase from baseline): 2 (1.5–2.0)
- Activity loss clinical score ([4]; H1N1pdm09, OST dosed ferrets, maximum loss from baseline): 1 (21–40)
- Nasal inflammation Cell score ([4]; H1N1pdm09, OST dosed ferrets, nasal wash, maximum cell count): 1 (1 to 2 x10^6)
- Nasal inflammation Protein score ([4]; H1N1pdm09, OST dosed ferrets, nasal wash, maximum protein concentration): 2 (1001–1500)
- difference in %AUC for activity levels (OST vs placebo) ([4]; H1N1pdm09, ferrets): 53%
- Duration of Shedding ([4]; H1N1pdm09, ferrets, OST 5 mg/kg twice daily): 3.5 ± 0.7 days
- AUC (total area under the viral shedding curve, raw data) ([4]; H1N1pdm09, ferrets, OST 5 mg/kg twice daily, mean ± SD): 9.3 ± 12.7
- difference in %AUC for protein concentration (OST vs placebo) ([4]; H1N1pdm09, ferrets, nasal wash): 56%
- % Ferrets Infected ([4]; in vivo): 50% and 50 (2/4) %
- Peak Viral Titre ([4]; in vivo): 4.2 ± 0.9 Log10 TCID50/ml
- Weight loss clinical score ([4]; in vivo): 0
- difference in %AUC for weight change (OST vs placebo) ([4]; in vivo): 4.9%
- body weight or temperature, OST- vs placebo-treated animals (H1N1pdm09 virus; H1N1pdm09, macaques, OST 3 mg/kg orally): no significant differences
- viral titre lower in tracheal lavages of OST dosed macaques compared to placebo (H1N1pdm09 virus; cynomolgus monkey, in vivo): 1.9 logs
- viral titres in nasal wash and tracheal lavages, OST vs placebo (H1N1pdm09 virus; cynomolgus monkey, in vivo): not significantly different
- Total Score (clinical signs) ([5]; H1N1, OST dosed ferrets): 3
- Temperature clinical score ([5]; H1N1, OST dosed ferrets, maximum increase from baseline): 1 (1.1–1.5)
- Activity loss clinical score ([5]; H1N1, OST dosed ferrets, maximum loss from baseline): 1 (21–40)
- Nasal inflammation Cell score ([5]; H1N1, OST dosed ferrets, nasal wash, maximum cell count): 1 (1 to 2 x10^6)
- Nasal inflammation Protein score ([5]; H1N1, OST dosed ferrets, nasal wash, maximum protein concentration): 0 (<500)
- difference in %AUC for weight (OST vs placebo) ([5]; H1N1, ferrets): 2.5%
- Duration of Shedding ([5]; H1N1, ferrets, OST 5 mg/kg twice daily): 0.0 ± 0.0 days
- AUC (total area under the viral shedding curve, raw data) ([5]; H1N1, ferrets, OST 5 mg/kg twice daily, mean ± SD): 0.0 ± 0.0
- difference in %AUC for cell count (OST vs placebo) ([5]; H1N1, ferrets, nasal wash): 67%
- difference in %AUC for protein concentration (OST vs placebo) ([5]; H1N1, ferrets, nasal wash): 74%
- % Ferrets Infected ([5]; in vivo): 0 (0/4) %
- Weight loss clinical score ([5]; in vivo): 0
- activity levels of OST dosed ferrets ([5]; in vivo): fluctuated around pre-exposure baseline levels
- ferrets infected (number infected/number exposed) ([5]; in vivo): 0/4
- IC50 ([6]; read-out: IC50 corresponding to a 50% reduction in OST efficacy against viral shedding): 14.6 nM
- IC50 ([6]; read-out: IC50 corresponding to a 90% loss in oseltamivir efficacy against viral shedding): 68.2 nM
